Key:
[1] = target: T1, human mGluR4 transiently over-expressed in HEK-293 cells (Homo sapiens, UniProt Q14833); assay: Human mGluR4 positive allosteric modulator evaluation using Ca++ functional assay; assay type: cell-based; conditions: HEK-293 cells co-transfected with hmGluR4 and chimeric G protein; EC10 glutamate; intracellular calcium (Fluo4AM); read-out: mean EC50 of agonist/positive allosteric modulator activity on mGluR4
T1 construct: expressed in transfected cells; host or cells: HEK-293 cells, transient co-transfection by electroporation
Method in brief: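 Fluo4AM-loaded HEK-293 cells expressing hmGluR4 plus a chimeric G protein were read for intracellular Ca2+ (ex 485, em 525 nm). PAM effect measured as potentiation of EC10 glutamate after a 60 s compound-alone agonist read; EC50 from variable-slope sigmoidal fits of 6–9 doses, duplicates, twice.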

mice [2] = assay: Marble burying test in the mouse; assay type: in vivo; conditions: p<0.001
Excerpt: In-Vivo Evaluation in the Marble Burying Test in the Mouse
The method, which detects anxiolytic/tranquilizing activity, follows that described by Broekkamp at al. (Eur. J. Pharmacol., 126, 223-229, 1986). Mice exposed to novel object (marbles) will bury them in the sawdust floor covering. Anxiolytics decrease the number of marbles buried at non-sedative doses.
Mice were individually placed in transparent plastic cages (33×21×18 cm) with 5 cm of sawdust on the floor and 25 marbles grouped in the centre of the cage. The cage was covered with an inverted plastic cage. Each test cage, together with the marbles, was impregnated with mouse odor before-hand by leaving 10 mice in the cage for 15 minutes. These mice then played no further role in the experiment. The number of marbles covered by sawdust (⅔ or more) was counted at the end of a 30 minute test. 12 mice were studied per group. The test was performed blind (apart from positive control). The compound of Example 85 was evaluated at 2 doses (100 and 300 mg/kg), administered p.o. 30 minutes before the test, and compared with vehicle control groups. Clobazam (8 mg/kg i.p.), administered 30 minutes before the test, was used as reference substance and was compared with the vehicle control group. Data were analyzed by comparing treated groups with control group using unpaired Student's t tests.

mice [3] = assay: Haloperidol-induced catalepsy model (bar test) in the mouse; assay type: in vivo; conditions: 30 mg/kg i.p. consecutively with haloperidol 1 mg/kg i.p.; compared with vehicle; FIG. 1
Description: In-Vivo Evaluation in the Haldoperidol-Induced Catalepsy Model in the Mouse
This method, which detects anti-Parkinsonian activity, follows that described by Pires et al. (J Med and Biol Res 38 1867-1872, 2005; Shiozaki et al., Psychopharmacology 147, 90-95, 1999)
Catalepsy was assessed using the bar test in mice submitted to acute intra-peritoneal administration of Haloperidol 1 mg/kg. Mice (male Rj: NMRI mice, weighing 25-30 g at the beginning of the experiment) placed in group of 5 in Plexiglas cages, were injected with Haloperidol (1 mg/kg i.p.). […] The catalepsy response of one mouse was measured as the time the animal maintained an imposed posture with both forelimbs placed on a horizontal 0.9 cm diameter wire bar suspended 4 cm above a platform. The end point of catalepsy was considered to occur when both forelimbs were removed from the bar, the mouse climbed onto the bar or if the animal moved its head in an exploratory manner. A cut-off time of 180 seconds was applied. The degree of catalepsy was scored 45 min after Haloperidol administration and continued at 45 minutes intervals for a total of 270 minutes. Between determinations, the animals were returned to their home cages. The compound of Example 63, administered i.p. consecutively with haloperidol, was evaluated at 30 mg/kg and compared with a vehicle control group. […]

T1 sequence (Q14833 33-912): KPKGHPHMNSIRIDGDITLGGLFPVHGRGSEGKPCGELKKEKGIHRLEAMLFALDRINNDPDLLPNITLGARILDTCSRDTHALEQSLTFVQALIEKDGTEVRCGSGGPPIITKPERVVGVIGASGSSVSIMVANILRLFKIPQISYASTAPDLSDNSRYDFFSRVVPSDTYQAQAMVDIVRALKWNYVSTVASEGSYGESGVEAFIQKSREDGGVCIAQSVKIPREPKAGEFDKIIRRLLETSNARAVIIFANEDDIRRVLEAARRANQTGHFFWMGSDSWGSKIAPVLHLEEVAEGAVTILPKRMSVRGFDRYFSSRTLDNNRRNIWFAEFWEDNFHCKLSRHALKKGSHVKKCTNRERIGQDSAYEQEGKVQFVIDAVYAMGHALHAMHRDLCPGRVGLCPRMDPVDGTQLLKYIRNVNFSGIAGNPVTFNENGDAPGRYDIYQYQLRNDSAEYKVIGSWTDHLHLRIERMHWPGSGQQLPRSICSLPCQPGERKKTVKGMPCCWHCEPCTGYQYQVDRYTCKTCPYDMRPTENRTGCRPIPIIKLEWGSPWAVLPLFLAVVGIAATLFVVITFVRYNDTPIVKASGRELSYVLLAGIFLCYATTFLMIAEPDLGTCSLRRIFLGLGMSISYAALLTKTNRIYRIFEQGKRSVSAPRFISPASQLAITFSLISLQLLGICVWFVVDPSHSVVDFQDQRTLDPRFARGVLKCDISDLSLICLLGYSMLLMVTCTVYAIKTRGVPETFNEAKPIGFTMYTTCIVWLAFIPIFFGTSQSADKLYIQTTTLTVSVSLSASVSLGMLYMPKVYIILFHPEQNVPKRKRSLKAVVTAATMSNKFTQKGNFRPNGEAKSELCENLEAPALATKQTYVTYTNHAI

SMILES	EC50 [1] [nM]	decrease of the number of marbles covered by sawdust, as compared with vehicle controls (mice [2]; 100 mg/kg p.o. 30 minutes before the test) [%]	decrease of the number of marbles covered by sawdust, as compared with vehicle controls (mice [2]; 300 mg/kg p.o. 30 minutes before the test) [%]	anticataleptic activity (mean time of latency spent on the bar) (mice [3])	melting point
Cl.ON=c1cc(-c2cc3cccn3cn2)oc2ccc(OCCN3CCOCC3)cc12 [Example 85, 6-(3-Morpholin-4-yl-ethoxy)-2-pyrrolo[1,2-c]pyrimidin-3-yl-chromen-4-one oxime hydrochloride]	< 1000	−70	−83		
ON=c1cc(-c2cc3cccn3cn2)oc2ccccc12 [Example 63, 2-Pyrrolo[1,2-c]pyrimidin-3-yl-chromen-4-one oxime]	< 1000			significant anticataleptic activity	
Cl.ON=c1cc(-c2cc3cccn3cn2)oc2ccc(OCCN3CCCC(F)(F)C3)cc12 [Example 114, 6-[2-(3,3-difluoro-piperidin-1-yl)-ethoxy]-2-pyrrolo[1,2-c]pyrimidin-3-yl-chromen-4-one oxime, hydrochloride]	< 1000				190 to 195 °C
Cn1ccc2cc(-c3cc(=NO)c4ccccc4o3)ncc21 [Example 77, 2-(1-Methyl-1H-pyrrolo[2,3-c]pyridin-5-yl)-chromen-4-one oxime]	< 5000				270 to 275 °C (dec.)
ON=c1cc(-c2cc3ccccc3cn2)oc2ccc(C(F)(F)F)cc12 (mixture of isomers) [Example 11, 2-isoquinolin-3-yl-6-trifluoromethyl-chromen-4-one oxime]	< 5000				245 to 247 °C
C=Cc1ccc2oc(-c3cc4ccccc4cn3)cc(=NO)c2c1 [Example 36, 2-isoquinolin-3-yl-6-(vinyl)-chromen-4-one oxime]	< 5000				198 to 200 °C
Cl.ON=c1cc(-c2cc3sccc3cn2)oc2ccc(OCCN3CCC(F)(F)CC3)cc12 [Example 128, 6-[2-(4,4-Difluoro-piperidin-1-yl)-ethoxy]-2-thieno[3,2-c]pyridin-6-yl-chromen-4-one oxime, hydrochloride]	< 1000				225 to 230 °C
ON=c1cc(-c2cc3ccccc3cn2)oc2cc(C#Cc3ccccn3)ccc12 [Example 24, 2-isoquinolin-3-yl-7-(pyridin-2-yl-ethynyl)-chromen-4-one oxime]	< 5000				248 to 251 °C
Cl.ON=c1cc(-c2cc3cccn3cn2)oc2cccc(OCCN3CCOCC3)c12 [Example 156, 5-(2-Morpholin-4-yl-ethoxy)-2-pyrrolo[1,2-c]pyrimidin-3-yl-chromen-4-one oxime, hydrochloride]	< 1000				200 to 205 °C

From patent US8962627B2, “Oxime derivatives and their use as allosteric modulators of metabotropic glutamate receptors” (Prestwick Chemical, Inc., priority 2009, dated 2015)
